Assay results reported in patent US4059687A, “Ester substituted dibiguanides and non-toxic antimicrobial compositions thereof” (Colgate Palmolive Company, priority 1976, dated 1977).
In brackets after ≈: the same amount, converted by molar mass. Structures can show the parent of a compound that is named as a salt.

How the values were obtained:
Staphylococcus aureus = assay: test tube serial dilution test (minimal inhibitory concentration), S. aureus (Gram positive); format: cell-based; conditions: broth serial dilution; for MIC: Staphylococcus aureus, read-out: Minimum Inhibitory Concentration, S. aureus
Source text: (§1) It has been observed that the compounds generally described by the foregoing formula are particularly effective against gram positive organisms such as Staphylococcus aureus, Streptococcus sanguis and Streptococcus mutans; gram negative organisms such as Pseudomonas aeruginosa and Escherichia coli; and against fungi, such as Candida alibicans (yeast) and Trichophyton mentogrophytes and Aspergillus niger (mold). Compounds wherein A or B is a carboxyl radical in lieu of instant alkyl ester radical are substantially devoid of antibacterial activity.
(§2) The anti-microbial nature of the instant novel nontoxic compounds was shown by a standard test tube serial dilution test in which an appropriate number of test tubes of broth containing decreasing concentrations of the test agent was innoculated with the test organism (0.1% in ethyl alcohol). After a suitable period of incubation, the tubes were examined for the presence or absence of growth. The activity of the test agent was the lowest concentration which inhibited the growth of the organism and is expressed as the minimal inhibitory concentration in μ gm/ml. As shown in the following table of antimicrobial data, the dibiguanides of this invention are active against a variety of micro-organisms with maximum activity with a butyl and pentyl ester substituent on the phenyl radical.

Streptococcus mutans = assay: test tube serial dilution test (minimal inhibitory concentration), Strep. mutans (Gram positive); format: cell-based; conditions: broth serial dilution; for MIC: Streptococcus mutans, read-out: Minimum Inhibitory Concentration, Strep. mutans
Source text: as §1, §2

Streptococcus sanguis = assay: test tube serial dilution test (minimal inhibitory concentration), Strep. sanguis (Gram positive); format: cell-based; conditions: broth serial dilution; for MIC: Streptococcus, read-out: Minimum Inhibitory Concentration, Strep. sanguis
Source text: as §1, §2

Pseudomonas aeruginosa = assay: test tube serial dilution test (minimal inhibitory concentration), Ps. aeruginosa (Gram negative); format: cell-based; conditions: broth serial dilution; for MIC: Pseudomonas aeruginosa, read-out: Minimum Inhibitory Concentration, Ps. aeruginosa
Source text: as §1, §2

Escherichia coli = assay: test tube serial dilution test (minimal inhibitory concentration), E. coli (Gram negative); format: cell-based; conditions: broth serial dilution; for MIC: Escherichia coli, read-out: Minimum Inhibitory Concentration, E. coli
Source text: as §1, §2

C. albicans = assay: test tube serial dilution test (minimal inhibitory concentration), C. albicans (yeast); format: cell-based; conditions: broth serial dilution; for MIC: Candida albicans, read-out: Minimum Inhibitory Concentration, C. albicans
Source text: as §1, §2

[1] = system: Trichophyton mentogrophytes; assay: test tube serial dilution test (minimal inhibitory concentration), T. ment (mold); format: cell-based; conditions: broth serial dilution; for MIC: Trichophyton, read-out: Minimum Inhibitory Concentration, T. ment
Source text: as §1, §2

Aspergillus niger = assay: test tube serial dilution test (minimal inhibitory concentration), A. niger (mold); format: cell-based; conditions: broth serial dilution; for MIC: Aspergillus niger, read-out: Minimum Inhibitory Concentration, A. niger
Source text: as §1, §2

[2] = literature; cited from earlier work
dental plaque = conditions: background statement; cited from earlier work
[3] = on standing; cited from earlier work

CCCCOC(=O)c1ccc(NC(=N)NC(=N)NCCCCCCNC(=N)NC(=N)Nc2ccc(C(=O)OCCCC)cc2)cc1 [drawing 6: A = C4 H9 OCO, B = H]
MIC (Staphylococcus aureus): 0.05 µg/mL (≈ 0.0785 µM)
MIC (Streptococcus mutans): < 0.05 µg/mL
MIC (Streptococcus sanguis): 0.78 µg/mL (≈ 1.22 µM)
MIC (Pseudomonas aeruginosa): 25 µg/mL (≈ 39.3 µM)
MIC (Escherichia coli): 3.12 µg/mL (≈ 4.9 µM)
MIC (C. albicans): 0.78 µg/mL (≈ 1.22 µM)
Minimum Inhibitory Concentration, T. ment [1]: 0.19 μgm/ml
MIC (Aspergillus niger): 100 µg/mL (≈ 157 µM)

CCOC(=O)c1ccc(NC(=N)NC(=N)NCCCCCCNC(=N)NC(=N)Nc2ccc(C(=O)OCC)cc2)cc1 [A = C2 H5 OCO, B = H, N,N"-bis(4-ethoxycarbonylphenyl)-3,12-diimino-2,4,11,13-tetraazatetradecanediimidamide dihydrochloride]
MIC (Staphylococcus aureus): 0.78 µg/mL
MIC (Streptococcus mutans): 0.39 µg/mL
MIC (Streptococcus sanguis): 25 µg/mL
MIC (Pseudomonas aeruginosa): 25 µg/mL
MIC (Escherichia coli): 1.56 µg/mL
MIC (C. albicans): 12.5 µg/mL
MIC [1]: 12.5 µg/mL
MIC (Aspergillus niger): 100 µg/mL

CC(C)OC(=O)c1ccc(NC(=N)NC(=N)NCCCCCCNC(=N)NC(=N)Nc2ccc(C(=O)OC(C)C)cc2)cc1 [A = (CH3)2 CHOCO, B = H]
MIC (Staphylococcus aureus): 0.19 µg/mL (≈ 0.312 µM)
MIC (Streptococcus mutans): 0.1 µg/mL (≈ 0.164 µM)
MIC (Streptococcus sanguis): 6.25 µg/mL (≈ 10.3 µM)
MIC (Pseudomonas aeruginosa): 25 µg/mL (≈ 41.1 µM)
MIC (Escherichia coli): 1.56 µg/mL (≈ 2.56 µM)
MIC (C. albicans): 1.56 µg/mL (≈ 2.56 µM)
MIC [1]: 6.25 µg/mL (≈ 10.3 µM)
MIC (Aspergillus niger): 50 µg/mL (≈ 82.1 µM)

N=C(NCCCCCCNC(=N)NC(=N)Nc1ccc(C(=O)O)cc1)NC(=N)Nc1ccc(C(=O)O)cc1 [A = COOH, B = H, reference compound]
MIC (Staphylococcus aureus): 10 µg/mL (≈ 19.1 µM)
MIC (Streptococcus mutans): 25 µg/mL (≈ 47.7 µM)
MIC (Streptococcus sanguis): 100 µg/mL (≈ 191 µM)
MIC (Pseudomonas aeruginosa): 50 µg/mL (≈ 95.3 µM)
MIC (Escherichia coli): 100 µg/mL (≈ 191 µM)
MIC (C. albicans): 100 µg/mL (≈ 191 µM)
MIC [1]: 100 µg/mL (≈ 191 µM)
MIC (Aspergillus niger): 100 µg/mL (≈ 191 µM)

COC(=O)c1cccc(NC(=N)NC(=N)NCCCCCCNC(=N)NC(=N)Nc2cccc(C(=O)OC)c2)c1 [A = H, B = CH3 OCO]
MIC (Staphylococcus aureus): 3.12 µg/mL (≈ 5.65 µM)
MIC (Streptococcus mutans): 1.56 µg/mL (≈ 2.82 µM)
MIC (Streptococcus sanguis): 100 µg/mL (≈ 181 µM)
MIC (Pseudomonas aeruginosa): 50 µg/mL (≈ 90.5 µM)
MIC (Escherichia coli): 12.5 µg/mL (≈ 22.6 µM)
MIC (C. albicans): 25 µg/mL (≈ 45.2 µM)
MIC [1]: 12.5 µg/mL (≈ 22.6 µM)
MIC (Aspergillus niger): 100 µg/mL (≈ 181 µM)

CC(C)OC(=O)c1cccc(NC(=N)NC(=N)NCCCCCCNC(=N)NC(=N)Nc2cccc(C(=O)OC(C)C)c2)c1 [A = H, B = (CH3)2 CHOCO, dihydrochloride]
MIC (Staphylococcus aureus): 0.19 µg/mL
MIC (Streptococcus mutans): 0.1 µg/mL
MIC (Streptococcus sanguis): 12.5 µg/mL
MIC (Pseudomonas aeruginosa): 50 µg/mL
MIC (Escherichia coli): 3.12 µg/mL
MIC (C. albicans): 3.12 µg/mL
MIC [1]: 12.5 µg/mL
MIC (Aspergillus niger): 50 µg/mL

COC(=O)c1ccc(NC(=N)NC(=N)NCCCCCCNC(=N)NC(=N)Nc2ccc(C(=O)OC)cc2)cc1 [drawing 6: A = CH3 OCO, B = H]
Minimum Inhibitory Concentration, S. aureus (Staphylococcus aureus): 3.12 μgm/ml
Minimum Inhibitory Concentration, Strep. mutans (Streptococcus mutans): 25 μgm/ml
MIC (Streptococcus sanguis): 50 µg/mL (≈ 90.5 µM)
MIC (Pseudomonas aeruginosa): 25 µg/mL (≈ 45.2 µM)
MIC (Escherichia coli): 50 µg/mL (≈ 90.5 µM)
MIC (C. albicans): 25 µg/mL (≈ 45.2 µM)
MIC [1]: 25 µg/mL (≈ 45.2 µM)
MIC (Aspergillus niger): 100 µg/mL (≈ 181 µM)

COC(=O)c1ccc(NC(=N)NC(=N)NCCCCCCNC(=N)NC(=N)Nc2ccc(C(=O)OC)cc2)cc1 [A = CH3 OCO, B = H]
Minimum Inhibitory Concentration, S. aureus (Staphylococcus aureus): 6.25 μgm/ml
Minimum Inhibitory Concentration, Strep. mutans (Streptococcus mutans): 1.56 μgm/ml
Minimum Inhibitory Concentration, Strep. sanguis (Streptococcus sanguis): 50 μgm/ml
Minimum Inhibitory Concentration, Ps. aeruginosa (Pseudomonas aeruginosa): 50 μgm/ml
Minimum Inhibitory Concentration, E. coli (Escherichia coli): 25 μgm/ml
Minimum Inhibitory Concentration, C. albicans (C. albicans): 25 μgm/ml
Minimum Inhibitory Concentration, T. ment [1]: 12.5 μgm/ml
Minimum Inhibitory Concentration, A. niger (Aspergillus niger): 100 μgm/ml

CCCCOC(=O)c1ccc(NC(=N)NC(=N)NCCCCCCNC(=N)NC(=N)Nc2ccc(C(=O)OCCCC)cc2)cc1 [A = C4 H9 OCO, B = H]
Minimum Inhibitory Concentration, S. aureus (Staphylococcus aureus): 0.1 μgm/ml
Minimum Inhibitory Concentration, Strep. mutans (Streptococcus mutans): < .05 μgm/ml
Minimum Inhibitory Concentration, Strep. sanguis (Streptococcus sanguis): .78 μgm/ml
Minimum Inhibitory Concentration, Ps. aeruginosa (Pseudomonas aeruginosa): 12.5 μgm/ml
Minimum Inhibitory Concentration, E. coli (Escherichia coli): 1.56 μgm/ml
Minimum Inhibitory Concentration, C. albicans (C. albicans): 0.78 μgm/ml
Minimum Inhibitory Concentration, T. ment [1]: 12.5 μgm/ml
Minimum Inhibitory Concentration, A. niger (Aspergillus niger): 50 μgm/ml

CCCCCOC(=O)c1ccc(NC(=N)NC(=N)NCCCCCCNC(=N)NC(=N)Nc2ccc(C(=O)OCCCCC)cc2)cc1 [A = C5 H11 OCO, B = H]
MIC (Staphylococcus aureus): 0.39 µg/mL (≈ 0.587 µM)
MIC (Streptococcus mutans): < 0.05 µg/mL
MIC (Streptococcus sanguis): 0.19 µg/mL (≈ 0.286 µM)
MIC (Pseudomonas aeruginosa): 50 µg/mL (≈ 75.2 µM)
MIC (Escherichia coli): 25 µg/mL (≈ 37.6 µM)
MIC (C. albicans): 0.39 µg/mL (≈ 0.587 µM)
MIC [1]: 25 µg/mL (≈ 37.6 µM)
MIC (Aspergillus niger): 50 µg/mL (≈ 75.2 µM)

CCCCCCCCOC(=O)c1ccc(NC(=N)NC(=N)NCCCCCCNC(=N)NC(=N)Nc2ccc(C(=O)OCCCCCCCC)cc2)cc1 [A = C8 H17 OCO, B = H, N,N"-bis(4-Octyloxycarbonylphenyl)-3,12-diimino-2,4,11,13-tetraazatetradecanediimidamide dihydrochloride]
MIC (Staphylococcus aureus): 1.56 µg/mL
MIC (Streptococcus mutans): 1.56 µg/mL
MIC (Streptococcus sanguis): 25 µg/mL
MIC (Pseudomonas aeruginosa): 50 µg/mL
MIC (Escherichia coli): 12.5 µg/mL
MIC (C. albicans): 12.5 µg/mL
MIC [1]: 25 µg/mL
MIC (Aspergillus niger): 100 µg/mL

CCCCCCOC(=O)c1ccc(NC(=N)NC(=N)NCCCCCCNC(=N)NC(=N)Nc2ccc(C(=O)OCCCCCC)cc2)cc1 [A = C6 H13 OCO, B = H]
MIC (Staphylococcus aureus): 0.39 µg/mL (≈ 0.563 µM)
MIC (Streptococcus mutans): 0.39 µg/mL (≈ 0.563 µM)
MIC (Streptococcus sanguis): 0.39 µg/mL (≈ 0.563 µM)
MIC (Pseudomonas aeruginosa): 50 µg/mL (≈ 72.2 µM)
MIC (Escherichia coli): 6.25 µg/mL (≈ 9.02 µM)
MIC (C. albicans): 0.39 µg/mL (≈ 0.563 µM)
MIC [1]: 12.5 µg/mL (≈ 18 µM)
MIC (Aspergillus niger): 100 µg/mL (≈ 144 µM)

CCCCOC(=O)c1cccc(NC(=N)NC(=N)NCCCCCCNC(=N)NC(=N)Nc2cccc(C(=O)OCCCC)c2)c1 [A = H, B = C4 H9 OCO]
MIC (Staphylococcus aureus): < 0.05 µg/mL
MIC (Streptococcus mutans): < 0.05 µg/mL
MIC (Streptococcus sanguis): 1.56 µg/mL (≈ 2.45 µM)
MIC (Pseudomonas aeruginosa): 12.5 µg/mL (≈ 19.6 µM)
MIC (Escherichia coli): 0.78 µg/mL (≈ 1.22 µM)
MIC (C. albicans): 0.39 µg/mL (≈ 0.612 µM)
MIC [1]: 6.25 µg/mL (≈ 9.81 µM)
MIC (Aspergillus niger): 50 µg/mL (≈ 78.5 µM)

N=C(NCCCCCCNC(=N)NC(=N)Nc1ccc(Cl)cc1)NC(=N)Nc1ccc(Cl)cc1 [Chlorhexidine, reference compound]
MIC (Staphylococcus aureus): 0.19 µg/mL (≈ 0.376 µM)
MIC (Streptococcus mutans): < 0.05 µg/mL
Minimum Inhibitory Concentration, Strep. sanguis (Streptococcus sanguis): 3.12 μgm/ml
Minimum Inhibitory Concentration, E. coli (Escherichia coli): 0.19 μgm/ml
MIC (C. albicans): 1.56 µg/mL (≈ 3.09 µM)
MIC (Aspergillus niger): 25 µg/mL (≈ 49.5 µM)
bacteriostatic activity in words [2]: selected as the best
antibacterial effect against dental plaque (dental plaque): effective antibacterial agent against dental plaque
hydrolysis of solutions to p-chloroaniline [3]: hydrolyze on standing to form additional amounts of p-chloroaniline

N=C(NCCCCCCNC(=N)NC(=N)Nc1ccc(Cl)cc1)NC(=N)Nc1ccc(Cl)cc1 [Chlorhexidine hydrochloride, reference compound]
Minimum Inhibitory Concentration, S. aureus (Staphylococcus aureus): .19 μgm/ml
Minimum Inhibitory Concentration, Strep. mutans (Streptococcus mutans): < .05 μgm/ml
Minimum Inhibitory Concentration, Strep. sanguis (Streptococcus sanguis): 6.25 μgm/ml
Minimum Inhibitory Concentration, Ps. aeruginosa (Pseudomonas aeruginosa): 12.5 μgm/ml
Minimum Inhibitory Concentration, E. coli (Escherichia coli): .78 μgm/ml
Minimum Inhibitory Concentration, C. albicans (C. albicans): 3.12 μgm/ml
Minimum Inhibitory Concentration, T. ment [1]: 1.56 μgm/ml
Minimum Inhibitory Concentration, A. niger (Aspergillus niger): 25 μgm/ml

CCCOC(=O)c1ccc(NC(=N)NC(=N)NCCCCCCNC(=N)NC(=N)Nc2ccc(C(=O)OCCC)cc2)cc1 [A = C3 H7 OCO, B = H]
MIC (Staphylococcus aureus): 0.19 µg/mL (≈ 0.312 µM)
MIC (Streptococcus mutans): < 0.05 µg/mL
MIC (Streptococcus sanguis): 3.12 µg/mL (≈ 5.13 µM)
MIC (Pseudomonas aeruginosa): 25 µg/mL (≈ 41.1 µM)
MIC (Escherichia coli): 1.56 µg/mL (≈ 2.56 µM)
MIC (C. albicans): 3.12 µg/mL (≈ 5.13 µM)
MIC [1]: 3.12 µg/mL (≈ 5.13 µM)
MIC (Aspergillus niger): 100 µg/mL (≈ 164 µM)
